Here are results for 28 molecules from patent publication EP1247803A2, “Indolinone compounds suitable for modulation of protein kinases” (Sugen, Inc., priority 1996, dated 1998).

Each structure is given as a SMILES string.

The target in one assay is T1, FLK-1 receptor (Mus musculus, UniProt P35918).
T1 construct: expressed in transfected cells; host or cells: NIH3T3 C7#3
In words: FLK-1 ELISA (kinase activity of the FLK-1 receptor in FLK-1/NIH3T3 cells, VEGF stimulated). It is filed as cell-based. The method, boiled down:
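FLK-1-expressing NIH3T3 C7#3 cells, starved overnight in 0.1% FBS medium, were treated with compounds at a 1:200 final dilution (0.5% DMSO) for 2 h at 37 °C, with VEGF stimulation. FLK-1 kinase activity was read by ELISA on anti-rabbit IgG plates using affinity-purified anti-FLK-1 antiserum.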
(ELISA stands for enzyme-linked immunosorbent assay.)

A further assay has as its system MET. In words: MET biochemical kinase assay. More on the design: species or system human; concentration or dose not given beside the values. An outline of the steps:
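Plates coated with anti-rabbit Fc bind a rabbit anti-MET antibody that captures receptor from cell lysates; unbound protein is washed off before compound and ATP-containing kinase buffer go in.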

T1 sequence (P35918 20-1345): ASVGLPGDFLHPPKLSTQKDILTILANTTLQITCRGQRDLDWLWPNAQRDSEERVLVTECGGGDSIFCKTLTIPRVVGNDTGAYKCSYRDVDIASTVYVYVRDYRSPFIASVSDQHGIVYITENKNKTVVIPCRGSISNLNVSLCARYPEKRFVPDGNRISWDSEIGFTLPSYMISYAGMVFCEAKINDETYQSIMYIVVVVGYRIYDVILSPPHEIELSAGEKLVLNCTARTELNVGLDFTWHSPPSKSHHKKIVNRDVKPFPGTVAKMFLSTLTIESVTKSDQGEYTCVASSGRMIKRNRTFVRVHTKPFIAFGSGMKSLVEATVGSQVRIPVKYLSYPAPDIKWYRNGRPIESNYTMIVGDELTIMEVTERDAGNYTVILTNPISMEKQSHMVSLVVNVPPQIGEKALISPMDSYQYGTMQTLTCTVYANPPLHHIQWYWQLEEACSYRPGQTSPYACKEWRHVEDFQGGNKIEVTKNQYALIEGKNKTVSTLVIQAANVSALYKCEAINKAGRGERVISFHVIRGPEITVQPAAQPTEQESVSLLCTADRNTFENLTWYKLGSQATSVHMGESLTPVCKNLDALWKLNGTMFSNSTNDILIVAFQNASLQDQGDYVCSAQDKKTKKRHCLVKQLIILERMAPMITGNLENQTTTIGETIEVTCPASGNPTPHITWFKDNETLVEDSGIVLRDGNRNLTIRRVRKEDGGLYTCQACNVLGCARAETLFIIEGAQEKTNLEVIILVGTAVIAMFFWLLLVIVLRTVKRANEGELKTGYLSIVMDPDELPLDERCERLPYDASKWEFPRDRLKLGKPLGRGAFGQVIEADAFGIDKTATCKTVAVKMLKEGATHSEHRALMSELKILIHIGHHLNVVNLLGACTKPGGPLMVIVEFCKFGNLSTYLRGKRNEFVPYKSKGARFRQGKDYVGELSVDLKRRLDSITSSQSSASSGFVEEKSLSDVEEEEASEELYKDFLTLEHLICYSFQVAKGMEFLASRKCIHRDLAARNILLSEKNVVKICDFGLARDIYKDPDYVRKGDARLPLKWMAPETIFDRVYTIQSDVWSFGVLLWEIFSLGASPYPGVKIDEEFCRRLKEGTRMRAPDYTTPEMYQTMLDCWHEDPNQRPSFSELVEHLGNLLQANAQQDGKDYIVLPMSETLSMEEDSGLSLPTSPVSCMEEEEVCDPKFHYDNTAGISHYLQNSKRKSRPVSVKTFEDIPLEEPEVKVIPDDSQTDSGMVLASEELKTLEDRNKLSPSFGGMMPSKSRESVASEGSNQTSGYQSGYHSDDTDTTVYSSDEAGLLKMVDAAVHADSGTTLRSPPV

`Cc1c(Br)ccc2c1C(=Cc1ccc(Cl)s1)C(=O)N2` [10721/C07]: the “Fik Kinase %Inhibition” value at FLK-1 receptor turned out to be 10.9%. The “Met Kinase % Inhibition” value in the assay on MET worked out at 25.7%.

With `COc1cc(O)ccc1C=C1C(=O)Nc2ccc(S(=O)(=O)Nc3ccc(C(F)(F)F)cc3)cc21` [10720/E03], the “Fik Kinase %Inhibition” value at FLK-1 receptor is listed as 34.3%. Moreover, the “Met Kinase % Inhibition” value in the assay on MET came out at 54.9%.

For `CCOc1cc(C=C2C(=O)Nc3ccc(S(=O)(=O)N4CCOCC4)cc32)ccc1O` [10720/F09], the “Fik Kinase %Inhibition” value at FLK-1 receptor was found to be 5.9%. The “Met Kinase % Inhibition” value with MET is recorded as 49.2%.

As to `CCOc1cc(C=C2C(=O)Nc3ccc(S(=O)(=O)Nc4ccc(C(F)(F)F)cc4)cc32)ccc1O` [10720/E09], at FLK-1 receptor, the “Fik Kinase %Inhibition” value is recorded as 11.5%. In addition, in the assay with MET, the “Met Kinase % Inhibition” value is recorded as 43.4%.

With `CSc1ccc(C=C2C(=O)Nc3ccc(S(=O)(=O)Nc4ccc(C(F)(F)F)cc4)cc32)s1` [10720/E07], the “Fik Kinase %Inhibition” value on FLK-1 receptor was determined as 18.8%. Besides, in the assay on MET, the “Met Kinase % Inhibition” value turned out to be 30.3%.

In the case of `Cc1c(Br)ccc2c1C(=Cc1cc([N+](=O)[O-])cc(CCl)c1O)C(=O)N2` [10721/C06], the “Fik Kinase %Inhibition” value at FLK-1 receptor is recorded as 14.4%. Also, in the assay on MET, the “Met Kinase % Inhibition” value was determined as 56.4%.

Regarding `O=C1Nc2ccc(CCCl)cc2C1=Cc1ccccc1` [10720/G06], at FLK-1 receptor, the “Fik Kinase %Inhibition” value is reported as -3.4%. Also, the “Met Kinase % Inhibition” value with MET amounted to 21.6%.

For the molecule `CNS(=O)(=O)c1ccc2c(c1)C(=Cc1ccc(Cl)s1)C(=O)N2` [10721/D07], on FLK-1 receptor, the “Fik Kinase %Inhibition” value is listed as 6.4%. Besides, the “Met Kinase % Inhibition” value in the assay with MET is recorded as -6.8%.

In the case of `Cc1cc(O)cc(O)c1C=C1C(=O)Nc2ccc(S(=O)(=O)Nc3ccc(C(F)(F)F)cc3)cc21` [10720/E08], the “Fik Kinase %Inhibition” value on FLK-1 receptor is reported as 2.5%. The “Met Kinase % Inhibition” value in the assay on MET was determined as 55.1%.

Take `Cc1cc(C=C2C(=O)Nc3c(Br)cc(Br)cc32)sc1C` [10721/A04]: the “Fik Kinase %Inhibition” value at FLK-1 receptor is 6.5%. Further, the “Met Kinase % Inhibition” value in the assay with MET worked out at 85.0%.

For `CNS(=O)(=O)c1ccc2c(c1)C(=Cc1nn(C)cc1Cl)C(=O)N2` [10721/D03], the “Fik Kinase %Inhibition” value on FLK-1 receptor stood at 17.8%. For the same molecule, in the assay with MET, the “Met Kinase % Inhibition” value was 19.5%.

Take `COc1cccc(O)c1C=C1C(=O)Nc2ccc(Br)c(C)c21` [10717/C10]: at FLK-1 receptor, the “Fik Kinase %Inhibition” value is -8.0%. Also, in the assay on MET, the “Met Kinase % Inhibition” value is listed as 22.8%.

`Cc1c(Br)ccc2c1C(=Cc1cc(Br)c(O)c(C(C)(C)C)c1)C(=O)N2` [10721/C10]: the “Fik Kinase %Inhibition” value on FLK-1 receptor is listed as 21.1%. Besides, in the assay with MET, the “Met Kinase % Inhibition” value is 44.6%.

For the molecule `O=C1Nc2ccc(S(=O)(=O)N3CCOCC3)cc2C1=Cc1c(F)cc(F)cc1F` [10720/F02], the “Fik Kinase %Inhibition” value at FLK-1 receptor is on record as 9.1%. Also, in the assay with MET, the “Met Kinase % Inhibition” value was 17.8%.

For `O=C1Nc2ccc(S(=O)(=O)N3CCOCC3)cc2C1=Cc1ccccc1` [10720/F06], the “Fik Kinase %Inhibition” value at FLK-1 receptor came out at 11.9%. In the assay on MET, the “Met Kinase % Inhibition” value came to 21.9%.

Take `COc1ccc(C=C2C(=O)Nc3ccc(CCCl)cc32)cc1OC` [10720/G04]: the “Fik Kinase %Inhibition” value on FLK-1 receptor was 2.4%. The “Met Kinase % Inhibition” value in the assay with MET is 5.0%.

For `O=C1Nc2ccc(S(=O)(=O)Nc3ccc(C(F)(F)F)cc3)cc2C1=Cc1ncc[nH]1` [10720/E11], on FLK-1 receptor, the “Fik Kinase %Inhibition” value is 9.3%. In addition, the “Met Kinase % Inhibition” value in the assay on MET is given as -10.4%.

In the case of `Cc1cc(C=C2C(=O)Nc3ccc(Br)c(C)c32)sc1C` [10721/C04], the “Fik Kinase %Inhibition” value at FLK-1 receptor is reported as 21.8%. Besides, the “Met Kinase % Inhibition” value in the assay on MET is listed as 88.7%.

With `CNS(=O)(=O)c1ccc2c(c1)C(=Cc1ncc[nH]1)C(=O)N2` [10720/D11], at FLK-1 receptor, the “Fik Kinase %Inhibition” value is 9.8%. In the assay on MET, the “Met Kinase % Inhibition” value was 23.9%.

Regarding `Cc1cc(C)c(C=C2C(=O)Nc3c(Br)cc(Br)cc32)[nH]1` [10721/A08], the “Fik Kinase %Inhibition” value at FLK-1 receptor is reported as 4.8%. The “Met Kinase % Inhibition” value in the assay on MET amounted to 29.9%.

With `COc1ccc(O)c(C=C2C(=O)Nc3ccc(S(=O)(=O)N4CCOCC4)cc32)c1` [10720/F10], the “Fik Kinase %Inhibition” value at FLK-1 receptor is recorded as -2.6%. In addition, in the assay on MET, the “Met Kinase % Inhibition” value is listed as 42.8%.

Regarding `Cc1c(Br)ccc2c1C(=Cc1ccc(O)c(C(C)(C)C)c1)C(=O)N2` [10721/C09], the “Fik Kinase %Inhibition” value on FLK-1 receptor stood at 17.5%. Moreover, in the assay with MET, the “Met Kinase % Inhibition” value is reported as -4.7%.

On to `Cc1c(Br)ccc2c1C(=Cc1nn(C)cc1Cl)C(=O)N2` [10721/C03], for which the “Fik Kinase %Inhibition” value on FLK-1 receptor was 16.5%. In addition, the “Met Kinase % Inhibition” value with MET worked out at 6.2%.

`CNS(=O)(=O)c1ccc2c(c1)C(=Cc1[nH]c(C)cc1C)C(=O)N2` [10721/D08]: at FLK-1 receptor, the “Fik Kinase %Inhibition” value worked out at 3.9%. For the same molecule, in the assay on MET, the “Met Kinase % Inhibition” value was 45.3%.

For the molecule `Cc1cc(C)c(C=C2C(=O)Nc3ccc(I)cc32)[nH]1` [10721/B08], on FLK-1 receptor, the “Fik Kinase %Inhibition” value was 18.5%. Further, in the assay with MET, the “Met Kinase % Inhibition” value came out at 64.5%.

Take `CNS(=O)(=O)c1ccc2c(c1)C(=Cc1ccc(O)c(C(C)(C)C)c1)C(=O)N2` [10721/D09]: the “Fik Kinase %Inhibition” value at FLK-1 receptor was 17.6%. Further, the “Met Kinase % Inhibition” value with MET is on record as -4.9%.

For the molecule `O=C1Nc2ccc(CCCl)cc2C1=Cc1c(F)cc(F)cc1F` [10720/G02], the “Fik Kinase %Inhibition” value at FLK-1 receptor is reported as 5.0%. For the same molecule, the “Met Kinase % Inhibition” value with MET was 20.1%.

Take `COc1ccc(C=C2C(=O)Nc3ccc(S(=O)(=O)N4CCOCC4)cc32)cc1OC` [10720/F04]: at FLK-1 receptor, the “Fik Kinase %Inhibition” value was determined as 10.6%. Also, the “Met Kinase % Inhibition” value in the assay with MET is reported as 43.1%.
